Measurements published in patent publication US10058563B2, “System and method for diagnosis and treatment” (Pop Test Oncology Limited Liability Company, priority 2011, dated 2018).
≈ marks a conversion by molar mass, not a printed value. Where two headings read alike, the source gives them in different places.

Key:
[1] = Behaviour in conventional dosage forms (capsule or tablet); type: in vivo; settings: like a capsule or a tablet
Source text: Another dosage form than a conventional tablet or capsule may be able to circumvent these issues.

[2] = disclosed in U.S. Pat. No. 6,011,025; cited from earlier work
[3] = tested on: mineralocorticoid, progesterone, estrogen and androgen receptors; settings: such as those for estrogen and progesterone; cited from earlier work
glucocorticoid receptor = biological target: T1, glucocorticoid receptor (Homo sapiens, UniProt P04150); settings: disclosed in U.S. Pat. No. 6,011,025; cited from earlier work
T1 sequence (P04150 1-777): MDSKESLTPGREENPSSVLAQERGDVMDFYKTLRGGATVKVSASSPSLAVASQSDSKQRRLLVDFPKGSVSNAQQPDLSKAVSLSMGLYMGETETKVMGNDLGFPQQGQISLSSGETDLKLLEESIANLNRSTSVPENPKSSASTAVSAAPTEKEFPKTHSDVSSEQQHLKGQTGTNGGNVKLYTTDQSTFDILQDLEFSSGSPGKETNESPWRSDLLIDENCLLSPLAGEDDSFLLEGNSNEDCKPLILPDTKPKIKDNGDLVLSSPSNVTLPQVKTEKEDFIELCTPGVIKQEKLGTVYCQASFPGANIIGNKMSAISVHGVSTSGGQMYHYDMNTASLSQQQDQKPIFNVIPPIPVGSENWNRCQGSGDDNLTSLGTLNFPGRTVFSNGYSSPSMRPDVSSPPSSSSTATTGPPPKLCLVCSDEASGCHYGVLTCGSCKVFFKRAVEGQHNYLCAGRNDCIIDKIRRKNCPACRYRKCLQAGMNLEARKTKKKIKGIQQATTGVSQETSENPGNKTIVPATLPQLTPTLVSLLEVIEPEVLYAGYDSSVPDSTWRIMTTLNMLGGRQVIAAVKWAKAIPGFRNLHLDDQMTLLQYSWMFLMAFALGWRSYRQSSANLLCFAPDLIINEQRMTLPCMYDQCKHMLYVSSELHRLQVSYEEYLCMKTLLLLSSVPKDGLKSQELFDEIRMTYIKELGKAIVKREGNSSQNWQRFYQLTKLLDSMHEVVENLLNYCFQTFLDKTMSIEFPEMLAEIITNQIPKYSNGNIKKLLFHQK

[4] = all phase I and phase II clinical trials performed with the compound; cited from earlier work
[5] = tested on: TNBC (Triple Negative Breast Cancer; MDA-MB-231) cells; experiment: Xenografted breast tumor growth, ORG 34517 plus Taxol (Example 1); type: in vivo, CB-17 SCID mice; settings: for relative tumor growth: N=3, control Veh/Veh 379%
Description: This study is performed to obtain evidence for enhancement of chemotherapy sensitivity of GR+/ER−/PR−/Her2-neu− breast cancer cells by blocking stress-mediated cell survival pathways with a GR antagonist. In the present pilot study, the GR antagonist ORG 34517, is investigated, in one dose, in combination with the chemotherapeutic agent Taxol. Both the Taxol and ORG 34517 doses are selected based on previous experiments.
Materials and Methods—1×107 TNBC (Triple Negative Breast Cancer; MDA-MB-231) cells in 50 ul of PBS (phosphate buffered saline) are injected into the mammary fat pad of 4-5 week old CB-17 SCID mice (Taconic Labs). The mice are allowed to form xenografted breast tumors of approximately 200 mm3 volume. When tumors reach an average of 200 mm3 (Week “0”), 15 mice are separated into the 3 treatment groups 1) vehicle, 2) paclitaxel (Taxol), 3) ORG 34517+ paclitaxel. The used paclitaxel dose is 10 mg/kg/day dissolved in Ethanol/Sesame Oil; ORG 34517 is administered in the maximum soluble dose of 20.5 mg/kg/day dissolved in Ethanol/Castor Oil. The mice receive intraperitoneal injections (200 ul) of drugs for 5 consecutive days (day 1-5). Tumors are measured three times per week. Tumor size is both expressed as absolute volume and as relative growth in comparison to baseline (day 0).
Results—Treatment of the animals is started when the tumor has a volume of at least 100 mm3. The total experimental group consisted of 15 animals. In 6 animals the tumor growth was considered not sufficient. […] In the control situation the tumor grows within 13 days with about 800 mm3 (see raw data). To correct for baseline differences, for each animal the relative tumor growth is calculated. Relative growth is defined as (tumor size day x−tumor size day 0)/tumor size day 0. Group averages for the relative tumor growth are depicted in FIG. 1. In the control condition (VehlVeh) the relative growth is 379%. […] A further reduction of the growth is induced by the addition of ORG 34517 (517/Taxo). The relative growth of this latter group is 100%.
A repeated measures ANOVA did reveal a significant time-effect (F5,36)=2.73; p=0.035), a significant treatment effect (F(2,36)=26.86; p=0.000) and a significant interaction (F(10,36)=2.36; p=0.029). […] This statistical analysis should be considered explorative because of the pilot nature of the study.

[6] = tested on: ER-GR+ human breast cancer cells; experiment: Tumor volume in mice implanted with ER-GR+ breast cancer cells (Example 2); type: in vivo; settings: i.p. vehicle alone vs Paclitaxel alone vs Paclitaxel and ORG 34517; 3 mice per group
Source text: (§1) As tumor volume in each mouse approached the test threshold of 200 mm3, the mice were randomized to receive intraperitoneal injections of vehicle alone, chemotherapy (Paclitaxel) alone, and chemotherapy and ORG 34517. Each group contained 3 mice.
as §1, with “Mice were implanted with cultured ER-GR+ human breast cancer cells. As” for “As”

[7] = Solubility in different solvents; type: physicochemical
Description: The solubility of (11β,17β)-11-(1,3-benzodioxol-5-yl)-17-hydroxy-17-(1-propynyl)estra-4,9-dien-3-one is determined in different solvents. These solutions can be of use for clinical treatment with the advantages as mentioned above.

**Q.** Which results are given for `CC#C[C@]1(O)CC[C@H]2[C@@H]3CCC4=CC(=O)CCC4=C3[C@@H](c3ccc4c(c3)OCO4)C[C@@]21C` [ORG 34517, (11β,17β)-11-(1,3-benzodioxol-5-yl)-17-hydroxy-17-(1-propynyl) estra-4,9-dien-3-one]?
**A.** exposure behaviour [1]: low exposure, high dose variability, large food effect and non-dose linearity; androgenic and progestagenic activities [2]: low; cross-binding to other related steroidal hormone receptors [3]: without significant cross-binding; glucocorticoid receptor binding affinity (glucocorticoid receptor): high; significant toxicities and side effects [4]: none were identified; tumor growth in comparison to Veh/Taxo treatment ([5]; 517/Taxo, all three animals, individual scores): decreased tumor growth; relative tumor growth ([5]; ORG 34517 20.5 mg/kg/day + Taxol 10 mg/kg/day i.p. day 1-5 (517/Taxo)): 100%; animals with tumor shrinkage during treatment ([5]; ORG 34517 20.5 mg/kg/day + Taxol 10 mg/kg/day i.p. for 5 days): 2 out of 3; effect on the chemotherapeutic effect of Taxol ([5]; ORG 34517 i.p. 20.5 mg/kg/day for 5 days): potentiated the chemotherapeutic effect of Taxol; attained tumor volume [6]: significant differences in attained tumor volume; solubility ([7]; Arachis oil): 2.46 mg/g; solubility ([7]; Benzylalcohol): 390 mg/g; solubility ([7]; Castor oil): 7.38 mg/g; solubility ([7]; Castor oil:benzylbenzoate (90:10)): 15.0 mg/g; solubility ([7]; Castor oil:propylene glycol laurate (0.55:0.45; v:v)): 9.4 mg/g; solubility ([7]; Corn oil): 2.58 mg/g; solubility ([7]; Cremophor EL): 23 mg/g; solubility ([7]; Gelicure 44/14, oil or lipid, read-out: Solubility): 100000 µg/mL (≈ 232000 µM); solubility ([7]; Glucofurol:water (50:50), aqueous with cosolvent or surfactant or cyclodextrin, read-out: Solubility): 700 µg/mL (≈ 1630 µM); solubility ([7]; Glycoferol, organic solvent or mixture, read-out: Solubility): 118000 µg/mL (≈ 274000 µM); solubility ([7]; HPβCD, 10% in water, aqueous with cosolvent or surfactant or cyclodextrin, read-out: Solubility): 207 µg/mL (≈ 481 µM); solubility ([7]; HPβCD, 20% in water, aqueous with cosolvent or surfactant or cyclodextrin, read-out: Solubility): 395 µg/mL (≈ 917 µM); solubility ([7]; HPβCD, 40% in water, aqueous with cosolvent or surfactant or cyclodextrin, read-out: Solubility): 800 µg/mL (≈ 1860 µM); solubility ([7]; Medium Chain monoglyceride/glycerol monocaprylate): 28 mg/g; solubility ([7]; Miglyol 812): 4.5 mg/g; solubility ([7]; Mulgofen:water (5:95), aqueous with cosolvent or surfactant or cyclodextrin, read-out: Solubility): 2000 µg/mL (≈ 4650 µM); solubility ([7]; Olive oil): 2.26 mg/g; solubility ([7]; PEG 400, organic solvent or mixture, read-out: Solubility): 34400 µg/mL (≈ 79900 µM); solubility ([7]; PEG 400:water (60:40), aqueous with cosolvent or surfactant or cyclodextrin, read-out: Solubility): 0.6 µg/mL (≈ 1.39 µM); solubility ([7]; PEG 1500, organic solvent or mixture, read-out: Solubility): 37000 µg/mL (≈ 85900 µM); solubility ([7]; Polysorbate in water (0.5%)): <LOD; solubility ([7]; Soy oil): 2.70 mg/g; solubility ([7]; Span 80): 7 mg/g; solubility ([7]; TPGS:PEG 400:propyleneglycol (12:17:55), organic solvent or mixture, read-out: Solubility): 700 µg/mL (≈ 1630 µM); solubility ([7]; TPGS:PEG 400:propyleneglycol (20:60:5), organic solvent or mixture, read-out: Solubility): 900 µg/mL (≈ 2090 µM); solubility ([7]; acetone, organic solvent or mixture, read-out: Solubility): > 10000 µg/mL; solubility ([7]; acetonitrile, organic solvent or mixture, read-out: Solubility): > 10000 µg/mL; solubility ([7]; aqueous with cosolvent or surfactant or cyclodextrin, TPGS:d-Alpha Tocopheryl Polyethylene Glycol 1000 Succinate (20%, as delivered), read-out: Solubility): 1100 µg/mL (≈ 2550 µM); solubility ([7]; dimethylsulfoxide, organic solvent or mixture, read-out: Solubility): > 100000 µg/mL; solubility ([7]; dog bile:phosphate buffer (1:1), plasma or biological fluid, Dog bile:phosphate buffer (pH = 6.5) (1:1), read-out: Solubility): ~80 µg/mL (≈ 186 µM); solubility ([7]; ethanol, organic solvent or mixture, read-out: Solubility): > 10000 µg/mL; solubility ([7]; ethanol:PEG 400:propylene glycol (10:50:40), organic solvent or mixture, read-out: Solubility): 28600 µg/mL (≈ 66400 µM); solubility ([7]; ethanol:PEG 400:propylene glycol:water (10:40:40:10), aqueous with cosolvent or surfactant or cyclodextrin, read-out: Solubility): 14000 µg/mL (≈ 32500 µM); solubility ([7]; methanol, organic solvent or mixture, read-out: Solubility): > 10000 µg/mL; solubility ([7]; propylene glycol, organic solvent or mixture, read-out: Solubility): 8900 µg/mL (≈ 20700 µM); solubility ([7]; water with sodium lauryl sulphate 0.5% w/v, aqueous with cosolvent or surfactant or cyclodextrin, Water-Sodium lauryl sulphate (0.5% w/v), read-out: Solubility): 240 µg/mL (≈ 557 µM); solubility ([7]; water with sodium lauryl sulphate 1.0% w/v, aqueous with cosolvent or surfactant or cyclodextrin, Water-Sodium lauryl sulphate (1.0% w/v), read-out: Solubility): 377 µg/mL (≈ 876 µM); solubility ([7]; water, read-out: Solubility): 3 µg/mL (≈ 6.97 µM)

**Q.** Which results are given for `CC(=O)O[C@H]1C(=O)[C@@]2(C)[C@H]([C@H](OC(=O)c3ccccc3)[C@]3(O)C[C@H](OC(=O)[C@H](O)[C@@H](NC(=O)c4ccccc4)c4ccccc4)C(C)=C1C3(C)C)[C@]1(OC(C)=O)CO[C@@H]1C[C@@H]2O` [Taxol, paclitaxel, reference compound]?
**A.** relative tumor growth ([5]; Taxol 10 mg/kg/day i.p. day 1-5 (Veh/Taxo)): 183%; effect on tumor growth ([5]; Taxol injections alone): reduced the tumor growth
